{
  "source": "patent US9211244B2",
  "about": "“Method for anti-skin aging using caffeamide derivative” (CHINA MEDICAL UNIVERSITY, priority 2013, dated 2015)",
  "key": {"[1]": {"test": "Scavenging test of DPPH free radical", "format": "biochemical", "conditions": "for Scavenging efficiency (%): 200 μM DPPH, 30 minutes", "protocol": "DPPH (1,1-diphenyl-2-picrylhydrazyl) was used as a source of free radicals to examine the scavenging efficiency of the caffeamide derivatives prepared in Example 1 on free radicals. […] The mixtures were placed in the dark at room temperature for 30 minutes and its absorbance at 517 nm was measured by an enzyme immunoassay analyzer. In this experiment, 50 volume % propanediol was used to replace extracts and to be a control group, ascorbic acid (vitamin C) was used as a positive control group, and methanol was used to replace DPPH as the background value. The scavenging efficiency of caffeamide derivatives on free radicals was examined by the formula blow, and the results are shown in Table 2, FIG. 1a, and FIG. 1b. Scavenging efficiency(%)=[the absorbance of the control group−the absorbance of the experimental group/the absorbance of the control group]×100%."}, "[2]": {"tested_on": "human fibroblast Hs68 cells", "test": "Scavenging test of ROS free radicals in UVB-irradiated cells", "format": "cell-based", "conditions": "UVB 80 mJ/cm^2, 24 hours", "protocol": "After incubated in an incubator (37° C., 5% CO2) for 24 hours, the ROS level was examined."}, "MMP-1": {"tested_on": "MMP-1", "test": "MMP expression, western blot, UVB-irradiated Hs68 cells", "format": "cell-based, human", "conditions": "5 μM; UVB 40 mJ/cm^2; 48 hours", "protocol": "(§1) Human fibroblast Hs68 cells (5×10^5) (the number of Bioresource Collection and Research Center (BCRC): 60038) were counted and incubated in a culture dish with a diameter of 10 cm (the culture dish components were adjusted by L-glutamine (4 mM) to have 1.5 g/L NaHCO3, 4.5 g/L glucose, and 90% Dulbecco's Modified Eagle's Medium with 10% fetal bovine serum (FBS)). The medium was removed until human fibroblast Hs68 cells grow to a confluence of 80%, and the cells were then washed once with 5 ml PBS (phosphate buffered saline). Then, 3 ml phenol red-free medium which contain different concentrations (0 μM to 25 μM) of the compounds of formula (1) or formula (2) prepared in Example 1 were added into the culture dish. After incubating for 1 hour, the cells were irradiated by UV light (UVB with an intensity of 40 mJ/cm^2) for 15 seconds. Next, the phenol red-free medium which contains different concentrations (0 μM to 25 μM) of the compounds of formula (1) or formula (2) prepared in Example 1 were added into the culture dish sequentially. After incubation in an incubator (37° C., 5% CO2) for 48 hours, the cells were collected.\n(§2) The collected cells were treated with a sonication buffer (containing Na3VO4 (100 μM), phenylmethanesulfonyl fluoride (PMSFL, 100 mg/ml), leupeptin (20 mg/ml), Tris-HCl (pH 7.4, 50 μM), NaCl (37.5 μM), DL-dithiothretiol (250 μM), sodium deoxycholate (3 μM), EDTA (1 μM), SDS (0.1%), and Igepal™ CA-630 (Sigma-Aldrich, 1%)) and sonicated to rupture the cell membranes. Then, the organelles and fragments of the cells were precipitated by centrifugation, and the supernatant, which contains proteins in the cytosol was collected. Next, the obtained proteins were separated by SDS-PAGE, and transferred to a membrane by western blotting. Antibodies were used to recognize the targeted proteins, such as MMP-1, MMP-3, MMP-9, and actin. The images were recorded by a Luminescent imagination technology (LAS-4000, FUJIFILM), and the variation of the proteins expression levels were determined by a quantitative analysis software (multi Gauge 2.2, Steware Technology Inc.)."}, "MMP-3": {"tested_on": "MMP-3", "test": "MMP expression, western blot, UVB-irradiated Hs68 cells", "format": "cell-based, human", "conditions": "5 μM; UVB 40 mJ/cm^2; 48 hours", "protocol": "as §1, §2"}, "p-ERK": {"tested_on": "p-ERK", "test": "Inhibition test of the phosphorylation of MAPK, western blot", "format": "cell-based, human", "conditions": "UVB 40 mJ/cm^2", "protocol": "(§3) It has been known that the skin photo-aging caused by UV rays will increase the content of MMPs in the dermis by the phosphorylation of MAPK. In this experiment, the effect of caffeamide derivative on the phosphorylation of MAPK in the cells was analyzed by western blotting.\n(§4) After being treated with the compound of formula (2) prepared in Example 1, the protein expression levels of the MAPKs induced by UVB were inhibited in a concentration dependent way. Specifically, when the concentration of the compound of formula (2) was 10 μM, the expression level of P-ERK was 1.1 times as compared to that of the untreated cells. When the concentration of the compound of formula (2) was 5 μM, the expression levels of p-JNK and p-p38 were both 1.1 times as compared to that of the untreated cells."}, "p-JNK": {"tested_on": "p-JNK", "test": "Inhibition test of the phosphorylation of MAPK, western blot", "format": "cell-based, human", "conditions": "UVB 40 mJ/cm^2", "protocol": "as §3, §4"}, "p-p38": {"tested_on": "p-p38", "test": "Inhibition test of the phosphorylation of MAPK, western blot", "format": "cell-based, human", "conditions": "UVB 40 mJ/cm^2", "protocol": "as §3, §4"}, "c-Fos": {"tested_on": "c-Fos", "test": "Inhibition test of AP-1 gene transcription factors, western blot", "format": "cell-based, human", "conditions": "5 μM; UVB 40 mJ/cm^2", "from_the_text": "(§5) When cells are irradiated by UV rays, JNK, p38 and c-Jun in the cells will translocated into the nucleus, and c-For will translocate into the nucleus under the regulation of ERK and p38. The two subunits of c-Jun and c-Fos will combine to form an AP-1 gene transcription factor to participate in gene expression process and increase the mRNA transcription level of MMP-1. On the other hand, the two subunits can also reduce the gene expression level of procollagen al of Type I collagen. Therefore, in this experiment, the expression of AP-1 in the nucleus was analyzed by western blotting.\n(§6) However, after the cells were treated with the compound of formula (2) prepared in Example 1, the protein expression levels of c-Fos, p-c-Jun, and c-Jun induced by UVB were inhibited in a concentration dependent way. Specifically, when the concentration of the compound of formula (2) was 10 μM, the expression level of c-Fos was 1.1 as compared to that of the untreated cells."}, "c-Jun": {"tested_on": "c-Jun", "test": "Inhibition test of AP-1 gene transcription factors, western blot", "format": "cell-based, human", "conditions": "UVB 40 mJ/cm^2", "from_the_text": "as §5, §6"}, "Smad3": {"tested_on": "Smad3", "test": "Promotion test of the expression of collagen, western blot", "format": "cell-based, human", "conditions": "UVB 40 mJ/cm^2; result in words", "protocol": "(§7) It has been known that Smad3 protein can promote the expression level of procollagen-1, and Smad7 protein can inhibit the expression level of Smad3 protein. After cells were irradiated with UV rays, the expression levels of procollagen-1 and Smad3 protein will reduce and the expression level of Smad7 protein will increase. Therefore, in this experiment, the expression levels of intracellular procollagen-1 protein, Smad3 protein and Smad7 protein were analyzed by western blotting.\n(§8) Specifically, when the concentration of the compound of formula (2) was 25 μM, the protein expression level of Smad7 was 1.1 times as compared to that of the untreated cells."}, "Smad7": {"tested_on": "Smad7", "test": "Promotion test of the expression of collagen, western blot", "format": "cell-based, human", "conditions": "UVB 40 mJ/cm^2", "protocol": "as §7, §8"}, "procollagen-1": {"tested_on": "procollagen-1", "test": "Promotion test of the expression of collagen, western blot", "format": "cell-based, human", "conditions": "25 μM; UVB 40 mJ/cm^2", "protocol": "as §7, §8"}, "[3]": {"tested_on": "human fibroblast Hs68 cells", "test": "Cellular toxicity evaluation, MTT assay", "format": "cell-based", "conditions": "24 hours", "protocol": "MTT (3-(4,5-dimethylthiazol-2-yl)-2,5-diphenyl tetrazolium bromide) assay was used to determine the cellular toxicity of the caffeamide derivatives described herein. First, different concentrations (0 μM to 100 μM) of the compounds of formula (1) or formula (2) prepared in Example 1 of the present invention were added, respectively, into a 96-well microplate which containing human fibroblast Hs68 cells (1×10^4 cells per well). After the cells were incubated in an incubator at 37° C. and 5% CO2 for 24 hours, 15 μl of MTT solution (0.5 mg/ml; dissolved in PBS) was added into the microplate and the human fibroblast Hs68 cells were incubated for 3 hours. Next, 75 μl SDS (sodium dodecyl sulfate) solution (10% SDS was dissolved in 0.01N HCl) was added into the microplate. After the cells were maintained for 24 hours, the absorbances of each well were measured at a wavelength of 570 nm by an enzyme immunoassay analyzer. Finally, the cell survival rate was calculated by the following formula to observe the cellular toxicity of compounds. The results are shown in Table 5, FIG. 10a and FIG. 10b. Cell survival rate(%)=absorbance of the experimental group/absorbance of the control group."}},
  "data": [
    {"smiles": "O=C1O[C@H]([C@@H](O)CO)C(O)=C1O", "note": "[Ascorbic acid, ascorbic acid, reference compound]", "values": [
      {"measurement": "Scavenging efficiency (%)", "setting": "[1]; 25 μM", "value": "57.5 ± 1.4", "unit": "%"},
      {"measurement": "Scavenging efficiency (%)", "setting": "[1]; 50 μM", "value": "89.8 ± 0.9", "unit": "%"}
    ]},
    {"smiles": "O=C(C=Cc1ccc(O)c(O)c1)NCCc1ccccc1", "note": "[Compound of formula (1)]", "values": [
      {"measurement": "EC50", "setting": "[1]; DPPH free radical scavenging, read-out: SC50 (the source's name)", "value": "22.1 ± 1.3", "unit": "µM"},
      {"measurement": "Concentration of ROS (times compared to the untreated cells)", "setting": "[2]; 5 μM", "value": "1.2 ± 0.13", "unit": "times"},
      {"measurement": "Concentration of ROS (times compared to the untreated cells)", "setting": "[2]; 10 μM", "value": "1.0 ± 0.21", "unit": "times"},
      {"measurement": "Concentration of ROS (times compared to the untreated cells)", "setting": "[2]; 25 μM", "value": "0.8 ± 0.07", "unit": "times"},
      {"measurement": "Concentration of ROS (times compared to the untreated cells)", "setting": "[2]; 25 μM, listed as compound of formula (1)", "value": 0.8, "unit": "times"},
      {"measurement": "expression level of MMP-1 as compared to that of the untreated cells", "setting": "MMP-1", "value": 1.0, "unit": "times"},
      {"measurement": "expression level of MMP-3 as compared to that of the untreated cells", "setting": "MMP-3", "value": 1.0, "unit": "times"},
      {"measurement": "expression level of p-ERK as compared to that of the untreated cells", "setting": "p-ERK; 10 μM", "value": 1.2, "unit": "times"},
      {"measurement": "expression level of p-ERK as compared to that of the untreated cells", "setting": "p-ERK; 25 μM", "value": 1.3, "unit": "times"},
      {"measurement": "expression level of p-JNK as compared to that of the untreated cells", "setting": "p-JNK; 10 μM", "value": 1.2, "unit": "times"},
      {"measurement": "expression level of p-JNK as compared to that of the untreated cells", "setting": "p-JNK; 25 μM", "value": 0.8, "unit": "times"},
      {"measurement": "expression level of p-p38 as compared to that of the untreated cells", "setting": "p-p38; 10 μM", "value": 1.2, "unit": "times"},
      {"measurement": "expression level of p-p38 as compared to that of the untreated cells", "setting": "p-p38; 25 μM", "value": 1.0, "unit": "times"},
      {"measurement": "expression level of c-Fos as compared to that of the untreated cells", "setting": "c-Fos", "value": 1.1, "unit": "times"},
      {"measurement": "expression level of c-Jun as compared to that of the untreated cells", "setting": "c-Jun; 10 μM", "value": 1.1, "unit": "times"},
      {"measurement": "expression level of c-Jun as compared to that of the untreated cells", "setting": "c-Jun; 25 μM", "value": 1.2, "unit": "times"},
      {"measurement": "effect on protein expression level of Smad3", "setting": "Smad3", "value": "not affected"},
      {"measurement": "protein expression level of Smad7 as compared to that of the untreated cells", "setting": "Smad7; 5 μM", "value": 1.2, "unit": "times"},
      {"measurement": "protein expression level of Smad7 as compared to that of the untreated cells", "setting": "Smad7; 10 μM", "value": 0.7, "unit": "times"},
      {"measurement": "protein expression level of Smad7 as compared to that of the untreated cells", "setting": "Smad7; 25 μM", "value": 0.7, "unit": "times"},
      {"measurement": "protein expression level of procollagen-1 decreased by UVB, reversed to", "setting": "procollagen-1", "value": 0.7, "unit": "times"},
      {"measurement": "Cell survival rate (%)", "setting": "[3]; 5 μM", "value": "99.9 ± 1.8", "unit": "%"},
      {"measurement": "Cell survival rate (%)", "setting": "[3]; 10 μM", "value": "99.5 ± 4.6", "unit": "%"},
      {"measurement": "Cell survival rate (%)", "setting": "[3]; 25 μM", "value": "104.2 ± 3.7", "unit": "%"},
      {"measurement": "Cell survival rate (%)", "setting": "[3]; 50 μM", "value": "107.8 ± 1.2", "unit": "%"}
    ]}
  ]
}
